Reference: patent US11642333B2, “Inhalable formulation of a solution containing vilanterol trifenatate and umeclidinium bromide” (ANOVENT PHARMACEUTICAL (U.S.), LLC, priority 2019, dated 2023)

Tests used:
[1] = Content of umeclidinium bromide and vilanterol trifenatate in the inhalation solutions (tested results); assay type: physicochemical
Experimental: 50% benzalkonium chloride and tween-80 according to table 1, were dissolved in 16 g of 95% ethanol for three times, and then transferred into 100 ml volumetric flask. […] Finally, the flask was made to volume with purified water.
50% benzalkonium chloride and tween-80 according to table 3, were dissolved in 95% ethanol according to table 3 for three times, and then transferred into 100 ml volumetric flask. […] Finally, the flask was made to volume with purified water.
50% benzalkonium chloride and tween-80 according to table 5, were dissolved in 95% ethanol according to table 5 for three times, and then transferred into 100 ml volumetric flask. […] Finally, the flask was made to volume with purified water.

[2] = in vivo; cited from earlier work

- Dissolution in the solution containing ethanol and tween-80 ([1]; sample I and sample II (table 2)): completely dissolved
- Dissolution in the solution containing ethanol and tween-80 ([1]; sample III, sample IV and sample V (table 4)): completely dissolved
- Dissolution in the solution containing ethanol and tween-80 ([1]; sample VI, sample VII and sample VIII (table 6)): completely dissolved
Structure (SMILES): OC(c1ccccc1)(c1ccccc1)C12CC[N+](CCOCc3ccccc3)(CC1)CC2.[Br-] [Umeclidinium bromide, 1-[2-(Benzyloxy)ethyl]-4-(hydroxydiphenylmethyl)-1-azoniabicyclo [2.2.2] octane bromide]
- oral bioavailability [2]: poor
